From patent US20170360882A1, “COMPOSITION FOR PREVENTING, IMPROVING OR TREATING PSORIASIS COMPRISING IMMUNOMODULATOR AND GLUCOSAMINE” (DONGGUK UNIVERSITY INDUSTRY-ACADEMY COOPERATION FOUNDATION, priority 2014, published 2017) come the findings set out here.

Holding throughout (assay type): in vivo, C57BL/6 mice
In one experiment the test system is IL-23. The experiment is described as follows: Cytokine production assay (ELISA), IL-23 in blood serum and skin of IMQ-induced psoriasis-like mice. Particulars: blood serum samples and skin samples; glucosamine 300 mg/kg, cyclosporine A 10 and 20 mg/kg; co-administration vs each alone; alone vs control group (IMQ alone). The method, then: (§1) To measure cytokine levels in blood serum, mouse blood serum was collected 24 hours after the final administration and stored at −70° C. until analysis. To measure cytokine levels in the skin tissues, the back skin of mice was removed and stored at −80° C. Thereafter, the skin tissues were homogenized using a Bullet Blender™ Blue (Next Advance, Averill Park, N.Y.) at 4° C. to obtain supernatants, and the supernatants were stored at −30° C. IL-17A, IL-22, IL-23, and TNF-α concentrations in the blood serum and the skin tissues of mice were measured using the Mouse IL-17A Quantikine ELISA Kit (R&D Systems, Minneapolis, Minn., USA), IL-22, IL-23 and TNF-α ELISA kits (eBioscience, San Diego, Calif., USA). Meanwhile, ELISA was performed according to the manufacturer's instructions.

For experiment [1], the system named is IMQ-induced psoriasis-like mouse model. As to the kind of experiment: Skin lesion score (erythema+scaling+thickening) in IMQ-induced psoriasis-like mouse model. Particulars: for severity of psoriasis-like skin lesions (cumulative score erythema+scaling+thickening): oral, 7 days. As for the experimental part: More specifically, hair on the backs of C57BL/6 mice was shaved off using an electric razor and then treated with a depilatory (Niclean, Ildong, Korea). For all other groups except a normal group, 62.5 mg of IMQ cream was applied daily to the shaved back area for 14 days.
On the other hand, the normal group as a negative control group was treated only with a vehicle cream (petrolatum).
The degree of (1) erythema, (2) scaling and (3) thickening was scored as 0 (none), 1 (mild), 2 (moderate) and 3 (severe). A cumulative dermatitis score (erythema+scaling+thickening) indicates the severity of psoriasis in back skin (scale: 0-9).
The clinical skin scores were calculated by summing the scores obtained on the basis of symptoms of erythema, scaling and thickening.

A further experiment concerns IL-22. As to the kind of experiment: Cytokine production assay (ELISA), IL-22 in blood serum and skin of IMQ-induced psoriasis-like mice. Particulars: blood serum samples and skin samples; glucosamine 300 mg/kg, cyclosporine A 10 and 20 mg/kg; co-administration vs each alone; alone vs control group (IMQ alone). The method, then: as §1
Another experiment deals with TNF-α. The experiment is described as follows: Cytokine production assay (ELISA), TNF-α in blood serum and skin of IMQ-induced psoriasis-like mice. The note with it: blood serum samples and skin samples; glucosamine 300 mg/kg, cyclosporine A 10 and 20 mg/kg; co-administration vs each alone; alone vs control group (IMQ alone). As for the experimental part:
as §1
A general note: In an ELISA, binding on a coated surface is turned into a signal by an enzyme label.

The subject of a further experiment is CD4+ CD25+ Treg cells. The experiment is described as follows: Flow cytometry of regulatory T (Treg) cells from spleens of IMQ-induced psoriasis-like mice. Particulars: spleen cells; glucosamine 300 mg/kg, cyclosporine A 20 mg/kg; co-administration vs each alone; alone vs control group (IMQ alone). As for the experimental part: Single-cell suspensions prepared from spleens were stained with FITC-anti-CD4 (GK1.5) and PE-anti-CD25 (280406) (R&D Systems, Minneapolis, Minn., USA), and incubated in a PBS solution containing 2% FBS at 4° C. for 30 minutes under dark conditions. After incubation, the samples were washed twice and analyzed using CellQuest software (Becton Dickinson).
A general note: In flow cytometry, cells or beads pass a laser one at a time.

In a further experiment the test system is IL-17A. As to the kind of experiment: Cytokine production assay (ELISA), IL-17A in blood serum and skin of IMQ-induced psoriasis-like mice. Particulars: blood serum samples and skin samples; glucosamine 300 mg/kg, cyclosporine A 10 and 20 mg/kg; co-administration vs each alone; alone vs control group (IMQ alone). As for the experimental part: as §1

As for `N[C@@H]1C(O)O[C@H](CO)[C@H](O)[C@@H]1O` (stereo in doubt) [glucosamine], the IL-23 level result in the experiment on IL-23 is “no significant difference”. Also, the clinical skin scores result in experiment [1] (glucosamine 300 mg/kg, cyclosporine A 10 and 20 mg/kg, oral once a day for a week, co-administration vs each alone, alone vs control group (IMQ alone)) is on record as “no significant difference”. The “severity of psoriasis-like skin lesions (cumulative score erythema+scaling+thickening)” value in experiment [1] (high doses alone: glucosamine 400 mg/kg, cyclosporine A 40 mg/kg) is “reduced”; in experiment [1] (low doses alone: glucosamine 100, 200 and 300 mg/kg, cyclosporine A 10 and 20 mg/kg) it was “no significant effect”. In addition, the IL-22 level result with IL-22 was “no significant difference”. In addition, in the experiment with TNF-α, the “level of TNF-α” value was “no significant difference”. Further, the “number of CD4+ CD25+ Treg cells” value in the experiment with CD4+ CD25+ Treg cells is “no significant difference”. For the same molecule, the IL-17A level entry in the experiment with IL-17A is on record as “no significant difference”.
